Measurements reported in US8765684B2, “Solid materials of {[(2S,5R,8S,11S)-5-benzyl-11-(3-guanidino-propyl)-8-isopropyl-7-methyl-3,6,9,12,15-pentaoxo-1,4,7,10,13-pentaaza-cyclopentadec-2-yl]-acetic acid} and methods for obtaining them” (Merck Patent GmbH, priority 2009, dated 2014).
“And” between values parts separate entries of the source, which are not always exact repeats. Equal values may be shown once.

Experiments:
[1] = format: physicochemical
Protocol: In the respective dynamic vapor sorption experiments discussed in more detail herein using ethanol vapor at 98% relative saturation for the Dihydrate-diethanolate/crystalline form S2 at 25° C. starting with the tetrahydrate a mass gain of 17% has been obtained. This is in good agreement with the above shown results for the tetraethanolate (calculated 117.0%, i.e. 17.0% of mass gain). Preferably, the tetrasolvates according to the invention, more preferably the Dihydrate-diethanolate, the Dihydrate-ethanolate, the Dihydrate-monoethanolate, the Diethanolate and/or the desolvates thereof, and especially the crystalline form S2 can be characterised, alternatively or additionally, by dynamic vapour experiments using water vapour and/or methanol vapour. The results can be obtained by standard techniques as described in Rolf Hilfiker, ‘Polymorphism in the Pharmaceutical Industry’, Wiley-VCH. Weinheim 2006 (Chapter 9: Water Vapour Sorption, and references therein). […] Upon water vapour adsorption, an assembly of water molecules in the lattice is observed, with a maximum weight gain of approx. 6.4 wt % at elevated rh. In the second desorption cycle a total mass loss of approx. 9.2 wt % is observed. For a Dihydrate Di-Ethanolate of the compound of formula I, the calculated Ethanol content equals 12.5 wt %. […] Thus, crystalline form S2 is a crystalline Ethanol solvate form or a mixed water/ethanol solvate form, preferably selected from the Dihydrate-ethanolate, the Dihydrate-monoethanolate, the Diethanolate and/or the desolvates thereof, which can be obtained e.g. via Ethanol Vapour Sorption, preferably via Ethanol Vapour Sorption starting with a hydrate structure, such as the hydrates according to the invention and especially the tetrahydrate according to the invention, i.e. crystalline form S3. From the Ethanol Vapour Sorption curve as shown in FIG. 21 and as discussed above, it can be seen that at elevated Ethanol partial pressure, approx. 17 wt % Ethanol are taken up by the sample.

[2] = Conditioning of amorphous Cilengitide under mixed water-ethanol atmospheres (stoichiometry by KF, HS-GC, NMR); format: physicochemical
Text: Stoichiometries as determined by Karl-Fischer titration (KF) for quantification of water and head space gas-chromatography (HS-GC) (and nuclear magnetic resonance spectroscopy (NMR)) for quantification of ethanol are depicted in Table 3. In the table also points representing stochiometries with more than 4 molecules of water per molecule of Cilengitide are visible. As there is no space for more than 4 molecules of water in the crystal lattice excess amounts of more than 4 molecules of water represent adsorbed moisture.
Also the modifications and the lattice parameters from indexing of the diffractograms are compiled in Table 3.

[3] = per 1 mol Cil, EtOH liquid phase 10 v %
[4] = per 1 mol Cil, EtOH liquid phase 20 v %
[5] = per 1 mol Cil, EtOH liquid phase 50 v %
[6] = per 1 mol Cil, EtOH liquid phase 70 v %
[7] = per 1 mol Cil, EtOH liquid phase 80 v %
[8] = per 1 mol Cil, EtOH liquid phase 85 v %
[9] = per 1 mol Cil, EtOH liquid phase 90 v %
[10] = per 1 mol Cil, EtOH liquid phase 95 v %
[11] = per 1 mol Cil, EtOH liquid phase 100 v %

Thermodynamic stability of the form [1]: thermodynamically stable form
Ethanol taken up by the sample ([1]; elevated Ethanol partial pressure, starting with a hydrate structure): approx. 17 wt %
Mass gain ([1]; ethanol vapor at 98% relative saturation, 25° C., starting with the tetrahydrate): 17%
EtOH HS-GC ([2]; EtOH liquid phase 10 v %): 3.2 wt %
H2O KF ([2]; EtOH liquid phase 10 v %): 9.5 wt %
Σ TG ([2]; EtOH liquid phase 10 v %): 12.5 wt %
EtOH HS-GC ([2]; EtOH liquid phase 20 v %): 4.3 wt %
H2O KF ([2]; EtOH liquid phase 20 v %): 8.4 wt %
Σ TG ([2]; EtOH liquid phase 20 v %): 13.0 wt %
EtOH HS-GC ([2]; EtOH liquid phase 50 v %): 6.9 wt % and 6.2 wt %
H2O KF ([2]; EtOH liquid phase 50 v %): 7.8 wt % and 6.8 wt %
Σ TG ([2]; EtOH liquid phase 50 v %): 13.7 wt % and 12.6 wt %
EtOH HS-GC ([2]; EtOH liquid phase 70 v %): 6.4 wt %
H2O KF ([2]; EtOH liquid phase 70 v %): 6.2 wt %
Σ TG ([2]; EtOH liquid phase 70 v %): 12.4 wt %
EtOH HS-GC ([2]; EtOH liquid phase 80 v %): 6.7 wt %
H2O KF ([2]; EtOH liquid phase 80 v %): 5.9 wt %
Σ TG ([2]; EtOH liquid phase 80 v %): 12.8 wt %
EtOH HS-GC ([2]; EtOH liquid phase 85 v %): 9.1 wt %
H2O KF ([2]; EtOH liquid phase 85 v %): 4.1 wt %
Σ TG ([2]; EtOH liquid phase 85 v %): 12.9 wt %
EtOH HS-GC ([2]; EtOH liquid phase 90 v %): 12.5 wt %
H2O KF ([2]; EtOH liquid phase 90 v %): 1.7 wt % and 1.2 wt %
Σ TG ([2]; EtOH liquid phase 90 v %): 13.8 wt % and 13.6 wt %
EtOH HS-GC ([2]; EtOH liquid phase 95 v %): 13.1 wt %
H2O KF ([2]; EtOH liquid phase 95 v %): 0.4 wt %
Σ TG ([2]; EtOH liquid phase 95 v %): 13.7 wt %
EtOH HS-GC ([2]; EtOH liquid phase 100 v %): 13.6 wt %
H2O KF ([2]; EtOH liquid phase 100 v %): 0.7 wt %
Σ TG ([2]; EtOH liquid phase 100 v %): 14.0 wt %
EtOH HS-GC [2, 3]: 0.5 mol
EtOH NMR [2, 3]: 0.5 mol
H2O KF [2, 3]: 3.6 mol
EtOH HS-GC [2, 4]: 0.6 mol
EtOH NMR [2, 4]: 0.7 mol
H2O KF [2, 4]: 3.1 mol
EtOH HS-GC [2, 5]: 1.0 mol and 0.9 mol
EtOH NMR [2, 5]: 1.0 mol
H2O KF [2, 5]: 3.0 mol and 2.5 mol
EtOH HS-GC [2, 6]: 0.9 mol
H2O KF [2, 6]: 2.3 mol
EtOH HS-GC [2, 7]: 1.0 mol
H2O KF [2, 7]: 2.2 mol
EtOH HS-GC [2, 8]: 1.3 mol
H2O KF [2, 8]: 1.5 mol
EtOH HS-GC [2, 9]: 1.9 mol
H2O KF [2, 9]: 0.6 mol and 0.5 mol
EtOH HS-GC [2, 10]: 1.9 mol
H2O KF [2, 10]: 0.2 mol
EtOH HS-GC [2, 11]: 2.0 mol
EtOH NMR [2, 11]: 2.0 mol
H2O KF [2, 11]: 0.3 mol
Substance: cyclo-(Arg-Gly-Asp-DPhe-NMe-Val) [crystalline form S2]
